# Results published in publication PMC7760514, “Fatty Acid Conjugation Leads to Length-Dependent Antimicrobial Activity of a Synthetic Antibacterial Peptide (Pep19-4LF)” (Antibiotics, 2020).
# Peptide text beside a SMILES is read from it. * marks the point of attachment. Stearoyl = CCCCCCCCCCCCCCCCCC(=O)*; Palmitoyl = CCCCCCCCCCCCCCCC(=O)*; Myristoyl = CCCCCCCCCCCCCC(=O)*; Lauroyl = CCCCCCCCCCCC(=O)*; Decanoyl = CCCCCCCCCC(=O)*; Octanoyl = CCCCCCCC(=O)*
# Assays:
# [1] = system: Acinetobacter bohemicus (DSM 100419); test: Minimal inhibitory concentration (MIC), broth microdilution; type: cell-based; set-up: key to MIC value: MIC in μg/mL (lowest concentration without visible growth); details: 30 ± 1 °C; for MIC value: Table S2, n=3, no unit given (main text uses µg/mL); for MIC: broth microdilution, cation-adjusted MHB II, 5 × 10^5 cfu/mL, read after 18 to 20 h, n = 3
# Experimental: (§1) Minimal inhibitory concentrations (MICs) were determined against Gram-positive Enterococcus faecium vanA (UL 602570*, clinical isolate from Institute for Medical Microbiology and Hygiene, Heidelberg University Hospital, Heidelberg, Germany), Staphylococcus aureus (ATCC 25923), Rothia kristinae (DSM 20032), and Gram-negative Acinetobacter bohemicus (DSM 100419) (all obtained from the Department of Infectious Diseases, Medical Microbiology and Hygiene, Heidelberg University, Heidelberg, Germany) in a 96-well polypropylene plate (650261 Greiner Bio-One GmbH, Frickenhausen, Germany) according to European Committee on Antimicrobial Susceptibility Testing (EUCAST) and The Clinical & Laboratory Standards Institute (CLSI) guidelines. Briefly, the stock solutions of the peptide conjugates in water were adjusted to a concentration of 1.28 mg/mL. Starting with the highest concentration of 64 μg/mL in 96-well polypropylene plates, dilution series in cation-adjusted Mueller–Hinton broth (MHB II; Sigma Aldrich, Steinheim, Germany) were performed, resulting in the lowest concentration of 0.125 μg/mL. A logarithmic growing bacterial culture was adjusted to a McFarland corresponding to 1 × 10^8 cfu/mL using a McFarland counter (DensiCHEK® plus, bioMerieux, Marcy-l’Étoile, France). Finally, a bacterial suspension of 1 × 10^6 cfu/mL (further diluted in MHB II) was added to each peptide-conjugate concentration. Thus, the final bacterial concentration in each well was 5 × 10^5 cfu/mL. The bacteria were incubated at 37 ± 1 °C (for A. bohemicus: 30 ± 1 °C) overnight and the bacterial growth was analyzed after 18 to 20 h. The MIC was defined as the lowest concentration of substance without any visible growth. Vancomycin and colistin sulfate were purchased from Sigma-Aldrich Chemie GmbH, München, Germany and Carl Roth GmbH, Karlsruhe, Germany.
# [2] = rat, in vivo, iv
# Experimental: For this purpose, the tyrosine residues of the peptides were radiolabeled with ^125I (Hartmann Analytic GmbH, Braunschweig, Germany) using the chloramine-T method [28]. Free ^125I was separated by preparative HPLC as previously described by Schieck et al. [22]. Approximately 2 to 4 MBq of the radiolabeled peptides was injected intravenously into the tail vein and images were recorded immediately post injection and after 1 h, 2 h, 3 h, 5 h, and 24 h. Scintigraphical images were obtained by using a γ-camera (Gamma Imager, Biospace Lab, Paris, France).
# [3] = system: Enterococcus faecium (UL602570*, clinical isolate, vanA-resistant); test: Minimal inhibitory concentration (MIC), broth microdilution; type: cell-based; details: cation-adjusted MHB II, 5 × 10^5 cfu/mL, 37 ± 1 °C, read after 18 to 20 h, n = 3
# Experimental: as §1
# [4] = system: Staphylococcus aureus (ATCC 25923); test: as above; type: cell-based; details: cation-adjusted MHB II, 5 × 10^5 cfu/mL, 37 ± 1 °C, read after 18 to 20 h, n = 3
# Experimental: as §1
# [5] = system: Acinetobacter bohemicus (DSM 100419); test: Minimal bactericidal concentration (MBC); type: cell-based; details: Table S2, n=3; unit inferred; lowest concentration killing 99.9% of the inoculum; agar 24 h, 30 ± 1 °C
# Experimental: (§2) Minimal bactericidal concentrations (MBCs) were determined by pipetting 3 µL of each broth dilution solution without visible growth onto a new agar plate. The agar plates were incubated at 37 ± 1 °C (for A. bohemicus: 30 ± 1 °C) for 24 h and were again analyzed with respect to bacterial growth. MBC is defined as the lowest concentration killing 99.9% of the inoculum.
# [6] = system: Rothia kristinae (DSM 20032); test: Minimal inhibitory concentration (MIC), broth microdilution; type: cell-based; details: Table 3 of supplement, n=3; unit inferred; 37 ± 1 °C
# Experimental: as §1
# [7] = system: Rothia kristinae (DSM 20032); test: Minimal bactericidal concentration (MBC); type: cell-based; details: Table 3 of supplement, n=3; unit inferred; lowest concentration killing 99.9% of the inoculum; agar 24 h, 37 ± 1 °C
# Experimental: as §2
# [8] = system: Rothia kristinae (DSM 20032); test: Time-kill studies; type: cell-based; details: for change in number of cfu/mL: 0.5 × MIC, 0 to 8 h
# Experimental: Time–kill studies were performed in accordance with CLSI guidelines. Therefore, Rothia kristinae DSM 20032 was adjusted to a concentration of 1 x 10^8 cfu/mL and further diluted to 1 × 10^6 cfu/mL in cation-adjusted MHB II. According to the previous determined MIC values of Pep19-4LF, C11-Pep19-4LF, and bacitracin (positive control) (Sigma Aldrich Chemie GmbH, München, Germany), samples were taken for 4 × MIC, 2 × MIC, 1 × MIC, and 0.5 × MIC after 30 min, 1 h, 2 h, 4 h, and 8 h. These samples were diluted in sterile saline and 10 µL of each sample was loaded onto agar plates. A bacterial suspension of 1 × 10^6 cfu/mL served as a growth control. Incubation occurred at 37 ± 1 °C and all counted colonies were recalculated to the colony number in the original inoculum.
# [9] = type: physicochemical
# Excerpt: The high MIC value of Pep19-short indicates the importance of a hydrophobic moiety for this synthetic antimicrobial peptide. […] If the length of the fatty acid is too short, the interaction between the peptide conjugate and components of the bacterial cell membrane might be unfavorable, thus leading to loss of efficiency. Fatty acids of medium chain length enable a stable plateau of low MIC values, indicating a more efficient interaction between the peptide conjugate and bacterial cells. […] A detailed interaction between Pep19 peptides and membrane-bound toxins was previously described by Correa et al.. […] A hypothesized mechanism for this interaction represents the reorganization of the bacterial membrane leading in an inability to maintain the osmotic pressure. Here, the positively-charged amino acids of the peptide conjugate might interact with the negatively-charged compounds of the bacterial cell wall and the hydrophobic part interacts with hydrophobic lipids of the bacterial membrane. Several mechanisms for a membrane disruption by amphiphilic peptides were further described by Sato and Feix. With respect to the parent peptide Pep19-4LF, the hydrophobic moiety was located at the C-terminus. As the synthesis leads to peptides that are linked to the resin via their C-terminus, the fatty acids were linked to the free N-terminus of the peptide. […]
# [10] = 4 × MIC, 1 × 10^6 cfu/mL in MHB II, 37 °C, n = 3
Molecule,MIC value [1],MIC [1],MIC [4],MBC value [5] [µg/mL],also measured
"GKKYRRFRWKFKGK-NH2 [Pep19-short, shortened variant of Pep19-4LF without hydrophobic moiety, …-NH2]",64,64 µg/mL,> 64 µg/mL,64,speed of elimination compared among the peptides [2]: no difference in the elimination time; MIC [3]: > 64 µg/mL
CCCCCCCCCCCC(=O)NCC(=O)N[C@@H](CCCCN)C(=O)N[C@@H](CCCCN)C(=O)N[C@@H](Cc1ccc(O)cc1)C(=O)N[C@@H](CCCNC(=N)N)C(=O)N[C@@H](CCCNC(=N)N)C(=O)N[C@@H](Cc1ccccc1)C(=O)N[C@@H](CCCNC(=N)N)C(=O)N[C@@H](Cc1c[nH]c2ccccc12)C(=O)N[C@@H](CCCCN)C(=O)N[C@@H](Cc1ccccc1)C(=O)N[C@@H](CCCCN)C(=O)NCC(=O)N[C@@H](CCCCN)C(N)=O [C12-Pep19-short] (Lauroyl-GKKYRRFRWKFKGK-NH2),4,–,–,4,–
CCCCCCCCCCCCCC(=O)NCC(=O)N[C@@H](CCCCN)C(=O)N[C@@H](CCCCN)C(=O)N[C@@H](Cc1ccc(O)cc1)C(=O)N[C@@H](CCCNC(=N)N)C(=O)N[C@@H](CCCNC(=N)N)C(=O)N[C@@H](Cc1ccccc1)C(=O)N[C@@H](CCCNC(=N)N)C(=O)N[C@@H](Cc1c[nH]c2ccccc12)C(=O)N[C@@H](CCCCN)C(=O)N[C@@H](Cc1ccccc1)C(=O)N[C@@H](CCCCN)C(=O)NCC(=O)N[C@@H](CCCCN)C(N)=O [C14-Pep19-short] (Myristoyl-GKKYRRFRWKFKGK-NH2),8,–,–,8,–
CCCCCCCC(=O)NCC(=O)N[C@@H](CCCCN)C(=O)N[C@@H](CCCCN)C(=O)N[C@@H](Cc1ccc(O)cc1)C(=O)N[C@@H](CCCNC(=N)N)C(=O)N[C@@H](CCCNC(=N)N)C(=O)N[C@@H](Cc1ccccc1)C(=O)N[C@@H](CCCNC(=N)N)C(=O)N[C@@H](Cc1c[nH]c2ccccc12)C(=O)N[C@@H](CCCCN)C(=O)N[C@@H](Cc1ccccc1)C(=O)N[C@@H](CCCCN)C(=O)NCC(=O)N[C@@H](CCCCN)C(N)=O [C8-Pep19-short] (Octanoyl-GKKYRRFRWKFKGK-NH2),8,–,–,8,–
CCCCCCCCCCCCCCCCCC(=O)NCC(=O)N[C@@H](CCCCN)C(=O)N[C@@H](CCCCN)C(=O)N[C@@H](Cc1ccc(O)cc1)C(=O)N[C@@H](CCCNC(=N)N)C(=O)N[C@@H](CCCNC(=N)N)C(=O)N[C@@H](Cc1ccccc1)C(=O)N[C@@H](CCCNC(=N)N)C(=O)N[C@@H](Cc1c[nH]c2ccccc12)C(=O)N[C@@H](CCCCN)C(=O)N[C@@H](Cc1ccccc1)C(=O)N[C@@H](CCCCN)C(=O)NCC(=O)N[C@@H](CCCCN)C(N)=O [C18-Pep19-short] (Stearoyl-GKKYRRFRWKFKGK-NH2),> 64,higher MIC values,higher MIC values,> 64,MIC value [6]: > 64 µg/mL; MBC value [7]: > 64 µg/mL
CCCCCCCCCCCCCCCC(=O)NCC(=O)N[C@@H](CCCCN)C(=O)N[C@@H](CCCCN)C(=O)N[C@@H](Cc1ccc(O)cc1)C(=O)N[C@@H](CCCNC(=N)N)C(=O)N[C@@H](CCCNC(=N)N)C(=O)N[C@@H](Cc1ccccc1)C(=O)N[C@@H](CCCNC(=N)N)C(=O)N[C@@H](Cc1c[nH]c2ccccc12)C(=O)N[C@@H](CCCCN)C(=O)N[C@@H](Cc1ccccc1)C(=O)N[C@@H](CCCCN)C(=O)NCC(=O)N[C@@H](CCCCN)C(N)=O [C16-Pep19-short] (Palmitoyl-GKKYRRFRWKFKGK-NH2),> 64,higher MIC values,higher MIC values,> 64,–
CCCCCCCCCC(=O)NCC(=O)N[C@@H](CCCCN)C(=O)N[C@@H](CCCCN)C(=O)N[C@@H](Cc1ccc(O)cc1)C(=O)N[C@@H](CCCNC(=N)N)C(=O)N[C@@H](CCCNC(=N)N)C(=O)N[C@@H](Cc1ccccc1)C(=O)N[C@@H](CCCNC(=N)N)C(=O)N[C@@H](Cc1c[nH]c2ccccc12)C(=O)N[C@@H](CCCCN)C(=O)N[C@@H](Cc1ccccc1)C(=O)N[C@@H](CCCCN)C(=O)NCC(=O)N[C@@H](CCCCN)C(N)=O [C10-Pep19-short] (Decanoyl-GKKYRRFRWKFKGK-NH2),4,–,–,4,–
"N=C(N)NCCC[C@H](NC(=O)[C@H](Cc1ccc(O)cc1)NC(=O)[C@H](CCCCN)NC(=O)[C@H](CCCCN)NC(=O)[C@H](CS)NC(=O)CN)C(=O)N[C@@H](CCCNC(=N)N)C(=O)N[C@@H](Cc1ccccc1)C(=O)N[C@@H](CCCNC(=N)N)C(=O)N[C@@H](Cc1c[nH]c2ccccc12)C(=O)N[C@@H](CCCCN)C(=O)N[C@@H](Cc1ccccc1)C(=O)N[C@@H](CCCCN)C(=O)NCC(=O)N[C@@H](CCCCN)C(=O)N[C@@H](Cc1ccccc1)C(=O)N[C@@H](Cc1c[nH]c2ccccc12)C(=O)N[C@@H](Cc1ccccc1)C(=O)N[C@@H](Cc1c[nH]c2ccccc12)C(=O)NCC(N)=O [Pep19-2.5, reference compound]",> 64,–,–,> 64,–
bacitracin,–,–,–,–,"change in number of cfu/mL ([8]; n = 3): only a small decrease in the number of cfu/mL; mode of action ([8]; 2 × MIC, n=3): bacteriostatic mode of action; time until no detectable cfu [8, 10]: 8 h; mode of action ([8]; 4 × MIC, n = 3): bactericidal activity"
"C11-GKKYRRFRWKFKGK [C11-Pep19-short, Pep19-short conjugated at the N-terminus to undecanoic acid (C11:0)]",4,–,–,4,"speed of elimination compared among the peptides [2]: faster excretion from the body; change in number of cfu/mL ([8]; n = 3): only a small decrease in the number of cfu/mL; time until all bacteria killed ([8]; 1 × MIC, n=3): 4 h; time until all bacteria killed ([8]; 2 × MIC, n=3): 0.5 h; time until all bacteria killed / no detectable cfu [8, 10]: ≤ 30 min; mode of action ([8]; 4 × MIC, n = 3): fast and bactericidal mode of action; solubility in water [9]: high solubility in water; MIC value [6]: 4 µg/mL; MBC value [7]: 4 µg/mL"
